Results on two compounds are retold here after ChEMBL document CHEMBL5725264, “4-(ortho)-fluorophenyl-5-fluoropyrimidin-2-yl amines containing a sulfoximine group” (2016).

Experiment [1] is described as follows: (§1) CDK9/CycT1 High ATP Kinase Assay: Method 1b: Recombinant full-length His-tagged human CDK9 and CycT1, expressed in insect cells and purified by Ni-NTA affinity chromatography, were purchase from Invitrogen (Cat. No PV4131). As substrate for the kinase reaction biotinylated peptide biotin-Ttds-[…] (C-terminus in amid form) was used which can be purchased e.g. form the company JERINI peptide technologies (Berlin, Germany).For the assay 50 nl of a 100 fold concentrated solution of the test compound in DMSO was pipetted into a black low volume 384 well microtiter plate (Greiner Bio-One, Frickenhausen, Germany), 2 ul of a solution of CDK9/CycT1 in aqueous assay buffer [50 mM Tris/HCl pH 8.0, 10 mM MgCl2, 1.0 mM dithiothreitol, 0.1 mM sodium ortho-vanadate, 0.01% (v/v) Nonidet-P40 (Sigma)] were added and the mixture was incubated for 15 min at 22° C. to allow pre-binding of the test compounds to the enzyme before the start of the kinase reaction. […] The concentration of CDK9/CycT1 was adjusted depending of the activity of the enzyme lot and was chosen appropriate to have the assay in the linear range, typical concentrations were in the range of 0.5 ug/ml. […].

A short description of experiment [2]: as §1, with “CDK9/CycT1” for “CDK9/CycT1 High ATP”, “Method 1a:” for “Method 1b:”, “were purchased” for “were purchase”, “JERINI Peptide Technologies” for “JERINI peptide technologies”, “of 1” for “of 0.5”.
The nature of experiment [3]: CDK2/CycE Kinase Assay: Method 2: Recombinant fusion proteins of GST and human CDK2 and of GST and human CycE, expressed in insect cells (Sf9) and purified by Glutathion-Sepharose affinity chromatography, were purchased from ProQinase GmbH (Freiburg, Germany). As substrate for the kinase reaction biotinylated peptide biotin-Ttds-[…] (C-terminus in amid form) was used which can be purchased e.g. form the company JERINI Peptide Technologies (Berlin, Germany).For the assay 50 nl of a 100 fold concentrated solution of the test compound in DMSO was pipetted into a black low volume 384 well microtiter plate (Greiner Bio-One, Frickenhausen, Germany), 2 ul of a solution of CDK2/CycE in aqueous assay buffer [50 mM Tris/HCl pH 8.0, 10 mM MgCl2, 1.0 mM dithiothreitol, 0.1 mM sodium ortho-vanadate, 0.01% (v/v) Nonidet-P40 (Sigma)] were added and the mixture was incubated for 15 min at 22° C. to allow pre-binding of the test compounds to the enzyme before the start of the kinase reaction. […] The concentration of CDK2/CycE was adjusted depending of the activity of the enzyme lot and was chosen appropriate to have the assay in the linear range, typical concentrations were in the range of 130 ng/ml. […].

In the case of `C[S@](=N)(=O)Cc1cc(Nc2ncc(F)c(-c3ccc(F)cc3F)n2)cc(C(F)(F)F)c1`, the figures for the IC50 in experiment [1], in experiment [2] and in experiment [3] were 231 nM, 13 nM and 630 nM, respectively.

Regarding `C[S@@](=N)(=O)Cc1cc(Nc2ncc(F)c(-c3ccc(F)cc3F)n2)cc(C(F)(F)F)c1`, the IC50 is 235 nM in experiment [1], 11 nM in experiment [2] and 780 nM in experiment [3].

Usually IC50 stands for the point on the concentration scale where inhibition reaches its midpoint.
